# Laboratory results from patent US9861613B2, “GPR142 agonist compounds” (Eli Lilly and Company, priority 2014, dated 2018).
# Columns and labels:
# human GPR142 = biological target: T1, human GPR142 (Homo sapiens, UniProt Q7Z601); assay: GPR142 agonist effect as measured by IP-1 assay (HTRF), human GPR142; assay type: cell-based; conditions: HEK293 cells expressing human GPR142, IP-1, Mean±SEM, n=9
# T1 construct: expressed in transfected cells; host or cells: HEK293 (G418-selected)
# T1 sequence (Q7Z601 1-462): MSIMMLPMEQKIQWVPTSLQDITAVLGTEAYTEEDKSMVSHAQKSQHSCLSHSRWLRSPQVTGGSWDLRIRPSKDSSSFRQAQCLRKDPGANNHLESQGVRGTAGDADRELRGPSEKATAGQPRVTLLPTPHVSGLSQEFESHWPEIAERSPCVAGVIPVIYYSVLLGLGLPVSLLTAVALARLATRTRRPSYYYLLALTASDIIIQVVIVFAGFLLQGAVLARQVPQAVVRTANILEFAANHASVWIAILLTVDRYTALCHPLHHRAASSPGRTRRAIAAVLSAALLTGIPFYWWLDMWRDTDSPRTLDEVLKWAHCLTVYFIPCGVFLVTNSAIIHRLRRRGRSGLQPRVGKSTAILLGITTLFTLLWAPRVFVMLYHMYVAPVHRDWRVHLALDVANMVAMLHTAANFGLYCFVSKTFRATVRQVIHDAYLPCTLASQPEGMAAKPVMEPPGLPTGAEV
# Description: (§1) The purpose of this assay is to detect GPR142 agonist effect.
# (§2) HEK293 cells expressing human GPR142 or mouse GPR142 are maintained in Dulbecco's modified Eagle's medium supplemented with 10% FBS and 800 μg/ml G418 (Geneticin®) at 37° C. and 5% CO2. The cells are plated in 384 well plates at 5000 cells per well and allowed 18 hours for attachment. After addition of compounds at varying concentrations ranging from 30 μM to 1 nM, cells are incubated for 1 hour. IP-1 measurements are performed using an IP-One HTRF® assay kit (Cisbio) according to manufacturer's protocol using assay buffer containing 1×HBSS (+Ca, +Mg), 0.1% BSA, 50 mM LiCl and 20 mM HEPES, pH 7.2. The reaction is stopped by addition of IP1-d2 (IP-1 coupled to an organic HTRF acceptor) followed by cryptate solution (http://www.htrf.com/usa/htrf-chemistry) and the plates are incubated at 25° C. for 1 hour. Fluorescence is read in an Envision instrument at 665 nm and 620 nm wavelength. The ratio of 665 nm/620 nm is calculated and converted to IP-1 levels using an IP-1 standard curve. The data is fit to a 4 parameter-fit logistics to determine EC50 values.
# GPR142 = biological target: T2, GPR142 (Mus musculus, UniProt Q7TQN9); assay: Intraperitoneal glucose tolerance test (IPGTT); assay type: in vivo; conditions: lean C57BL/6 mice, oral dosing 30 min before glucose challenge
# T2 construct: from tissue; host or cells: whole animal, male C57BL/6 mice
# T2 sequence (Q7TQN9 1-365): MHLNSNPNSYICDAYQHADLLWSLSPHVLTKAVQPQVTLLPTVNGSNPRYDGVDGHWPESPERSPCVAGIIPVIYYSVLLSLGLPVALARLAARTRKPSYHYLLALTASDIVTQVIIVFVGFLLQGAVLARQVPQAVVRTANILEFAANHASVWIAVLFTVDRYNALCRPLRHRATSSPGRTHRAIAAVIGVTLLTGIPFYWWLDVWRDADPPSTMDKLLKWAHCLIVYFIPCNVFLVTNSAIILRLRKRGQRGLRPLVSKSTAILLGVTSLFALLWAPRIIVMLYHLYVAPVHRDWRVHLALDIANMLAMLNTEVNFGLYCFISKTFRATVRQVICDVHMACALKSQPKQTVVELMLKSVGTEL
# Description: IPGTT assay is used to examine the ability of exemplified compounds to activate GPR142 in vivo resulting in anti-diabetic efficacy, i.e. reduction in plasma glucose levels. Male C57BL/6 mice (8-10 weeks of age) are fed normal rodent chow diet and water ad libitum. On the night before the study, animals are fasted overnight in clean cages. On the morning of the study, animals are dosed orally with vehicle or compound at the indicated doses 30 minutes prior to the glucose challenge (2 g/kg) by intraperitoneal injection. Blood glucose levels are determined from tail bleeds taken immediately prior to compound dosing (−30 min) and 0, 15, 30, and 60 min after glucose challenge using handheld glucometers. Plasma is isolated from tail bleeds taken at 7 minutes after glucose challenge and used to determine insulin levels by the Rat/Mouse Insulin Elisa kit (Millipore) or MA6000 Mouse/Rat Insulin Kit (MSD). The blood glucose profile from t=0 to t=60 min is used to calculate an area under the curve (AUC) for each treatment. Percent lowering in glucose AUC is calculated for each treatment group with respect to the AUC of vehicle group. Compounds with a reduction in glucose AUC (P<0.05) is considered positive in the assay.
# mouse GPR142 = biological target: T3, mouse GPR142 (Mus musculus, UniProt Q7TQN9); assay: GPR142 agonist effect as measured by IP-1 assay (HTRF), mouse GPR142; assay type: cell-based; conditions: HEK293 cells expressing mouse GPR142, IP-1; Mean±SEM, n=5; read-out: EC50 against mouse GPR142 receptor
# T3 construct: expressed in transfected cells; host or cells: HEK293 (G418-selected)
# T3 sequence (Q7TQN9 1-365): T2 sequence (Q7TQN9 1-365)
# Description: as §1, §2
structure (smiles),measurement,setting,value
"Cc1ncn(C)c1NC(=O)[C@@H]1CCC[C@H](N(C)C(=O)c2cccc(C(F)(F)F)c2)C1 (single isomer, unassigned; isomer 1) [Example 1, Cis-(chiral)-N-[3-[(3,5-Dimethylimidazol-4-yl)carbamoyl]cyclohexyl]-N-methyl-3-(trifluoromethyl)benzamide, isomer 1]",efficacy against human GPR142 receptor,human GPR142,105%
same,EC50,human GPR142; read-out: EC50 against human GPR142 receptor,0.0526 µM
same,ED50 in IPGTT,GPR142,4.2 mpk
same,EC50,mouse GPR142,0.00546 µM
